Assay results taken from the NIST ThermoML archive (doi:10.1021/je050162g).
Numbers after ± are expanded uncertainties.

Assays:
[1] = Liquid; for viscosity / speed of sound: 101 kPa; for viscosity: Capillary tube (Ostwald / Ubbelohde) method; for speed of sound: Linear variable-path acoustic interferometer; for mass density: 101.33 kPa, Pycnometric method
[2] = xn = mol fraction of the nth substance listed; conditions: 101 kPa, Liquid, x1 = 1; for viscosity: Capillary tube (Ostwald / Ubbelohde) method; for excess molar volume: Direct dilatometry; for speed of sound: Linear variable-path acoustic interferometer

Row | SMILES | viscosity ([1]; 303.15 K) [mPa·s] | speed of sound ([1]; 303.15 K) [m/s] | mass density ([1]; 303.15 K) [kg/m3] | viscosity ([1]; 308.15 K) [mPa·s] | speed of sound ([1]; 308.15 K) [m/s] | mass density ([1]; 308.15 K) [kg/m3] | viscosity ([1]; 313.15 K) [mPa·s] | speed of sound ([1]; 313.15 K) [m/s] | mass density ([1]; 313.15 K) [kg/m3] | vapor or sublimation pressure ([1]; 410 K) [kPa] | viscosity ([2]; 303.15 K) [mPa·s] | excess molar volume ([2]; 303.15 K) [m3/mol] | speed of sound ([2]; 303.15 K) [m/s] | viscosity ([2]; 308.15 K) [mPa·s] | excess molar volume ([2]; 308.15 K) [m3/mol] | speed of sound ([2]; 308.15 K) [m/s] | viscosity ([2]; 313.15 K) [mPa·s] | excess molar volume ([2]; 313.15 K) [m3/mol] | speed of sound ([2]; 313.15 K) [m/s] | vapor or sublimation pressure ([1]; 344.68 K) [kPa]
1 | Cc1ccc(C)cc1 [1,4-dimethylbenzene] | 0.566 ± 0.016 | 1283.7 ± 5.2 | 852.3 ± 2.3 | 0.537 ± 0.015 | 1271 ± 5.2 | 847.9 ± 2.3 | 0.513 ± 0.015 | 1260 ± 5.2 | 843.6 ± 2.3 | 97.3 ± 3 | – | – | – | – | – | – | – | – | – | –
2 | Cc1ccc(C)cc1 [1,4-dimethylbenzene] + C=COC(C)=O | – | – | – | – | – | – | – | – | – | – | 0.566 ± 0.016 | 0 ± 6e-09 | 1283.7 ± 5.2 | 0.537 ± 0.015 | 0 ± 6e-09 | 1271 ± 5.2 | 0.513 ± 0.015 | 0 ± 6e-09 | 1260 ± 5.2 | –
3 | C=COC(C)=O [vinyl acetate] | 0.384 ± 0.012 | 1095.9 ± 5.2 | 918 ± 6.8 | 0.361 ± 0.011 | 1072.5 ± 5.1 | 904.2 ± 6.7 | 0.332 ± 0.011 | 1055.7 ± 5.1 | 891.8 ± 6.7 | – | – | – | – | – | – | – | – | – | – | 97.3 ± 3
